Assay results: patent US11980596B2 (priority 2017, dated 2024)
Where “and” joins values, the source holds several entries; their conditions need not be identical. Identical values can stand only once. Entries after “also recorded” stand apart in the source; their conditions may differ. Counter-ions that a name gives are not always drawn. Marks after values point to notes of the source that are not given here.

Tests used:
MDD/TRD subjects = details: 52-week safety study in MDD/TRD subjects (Berman et al., 2011); cited from earlier work
[1] = Pharmacokinetics of intranasal esketamine in healthy subjects (Example 9)
Experimental: Blood samples (4 mL each) for determination of esketamine and noresketamine plasma concentrations were collected into the appropriate collection tube (e.g., Vacutainer®) at timepoints 0.00, 0.12, 0.20, 0.37, 0.53, 0.67, 0.83, 1.00, 1.25, 1.50, 2.00, 3.00, 4.00, 6.00, 9.00, 12.00, 18.00, and 24.00 h. The total amount of blood to be drawn for clinical laboratory tests and PK evaluations is approximately 327 mL.
Plasma samples were analyzed for esketamine and noresketamine concentrations using the validated, specific and sensitive liquid chromatography coupled to tandem mass spectrometry (LC-MS/MS) achiral method of Example 8.
Serial PK blood samples (4 mL each) were collected for a 24-hour period from each subject (Periods 1, 2, and 3). […] Statistical Methods 1.6.4.1. Sample Size
The following key parameters of esketamine and noresketamine in plasma were calculated using noncompartmental methods and actual sampling times: Cmax, tmax, AUClast, AUC∞, t1/2,λ, and λz.

glutamate NMDA receptor = experiment: Affinity for the NMDA receptor in vitro; type: binding
[2] = Clinical pharmacokinetics of esketamine (label)
[3] = test system: female Sprague-Dawley rats; experiment: Single dose neurotoxicity study: mortality, clinical observations, body weight; type: in vivo, rat; details: for Abnormal respiration, incidence / Abnormal respiration: audible respiration, incidence / Abnormal respiration: bradypnoea, incidence / Ataxia, incidence / Catalepsy, incidence / Chromodacryorrhea, incidence / Decreased general activity, incidence / Decubitus, incidence / Increased general activity, incidence / Narrowed palpebral fissure, incidence / Piloerection, incidence / Salivation (out of normal), incidence: single dose
Experimental: The injection volume was 5 mL/kg.
(§1) Body weight and body weight gain were measured daily.

[4] = test system: female Sprague-Dawley rats; experiment: 14-day repeated dose neurotoxicity study: mortality, clinical observations, body weight; type: in vivo, rat; details: 14 days
Experimental: as §1

[5] = Solubility of esketamine HCl
Experimental: The clinical investigational product is an aqueous solution of the drug substance, esketamine hydrochloride (HCl). This formulation is administered intranasally to patients using a dual nasal spray device, which delivers one spray into each nostril. […] The formulation was stored at 37° C. for stability reasons until dosing.

[6] = test system: posterior cingulate gyrus (PCG) and retrosplenial cortex (RSC); experiment: Single dose neurotoxicity study: brain histopathology (neuronal necrosis); details: single dose of 72 mg; 48 or 96 hours; hydrochloride
Experimental: In order to prepare for brain histopathology examination, all main study animals were perfused at necropsy. Prior to the perfusion, rats were anesthetized with isoflurane. After injection of 0.1 ml heparin, the blood of the rat was flushed out with a physiological saline solution by intraarterial insertion of a needle in the abdominal aorta. Thereafter the rat was perfused with glutaraldehyde 3% in potassium phosphate 0.09M and 1.4% sucrose.
The vehicle control, positive control, and esketamine HCl-dosed animals were sacrificed at either 48 hours (i.e., the first 12 or 15 rats per group) or 96 hours after the dose administration time (i.e., the last 12 or 15 rats per group). The brain tissue of the vehicle control-, positive control- and esketamine HCl-treated rats were processed at the same time and handled in the same way in batches of 4 or 5 animals per group.
Brain tissue was sampled and processed routinely. The trimmed and embedded tissue was sectioned and stained with hematoxylin-eosin (HE). Histoprocessing and staining were carried out in three batches of 4 animals per group (each batch thus containing 4 animals from vehicle control-, positive control- and the three esketamine HCl-treated groups). In the single dose study duplicate brain sections were stained with Fluoro-Jade (FJ).
All tissues showing gross abnormalities were examined macroscopically. […]

[7] = test system: posterior cingulate gyrus (PCG) and retrosplenial cortex (RSC); experiment: 14-day repeated dose neurotoxicity study: brain histopathology (neuronal necrosis); details: up to 54 mg/day; 48 hours after the last instillation; hydrochloride
Experimental: The brain tissue of the vehicle control-, positive control- and esketamine HCl-treated rats were processed at the same time and handled in the same way in batches of 4 animals per group.
Brain tissue was sampled and processed routinely. The trimmed and embedded tissue was sectioned and stained with hematoxylin-eosin (HE). Histoprocessing and staining were carried out in three batches of 4 animals per group (each batch thus containing 4 animals from vehicle control-, positive control- and the three esketamine HCl-treated groups).
All tissues showing gross abnormalities were examined macroscopically. Histopathological examination was performed on 7 levels of brain tissue according to Bolon (2013. Toxicol. Pathol. 41(7), 1028-1048) from the vehicle control-, positive control-, and high dose esketamine HCl-treated groups in the single dose study, and in all groups in the repeated dose study.
The microscopic finding of neuronal necrosis in the PCG/RSC of the brain was graded unilaterally according to the number of necrotic neurons observed over the total length of the PCG/RSC structure visible in the tissue section (usually around 3-5 mm) utilizing the following criteria:

[8] = Embryo-fetal toxicity, intranasal racemic ketamine, pregnant rats; type: in vivo, rat; details: female, rat, in vivo, inhaled or intranasal; intranasal; period of organogenesis
Experimental: (§2) Racemic ketamine was administered intranasally to pregnant rats during the period of organogenesis at doses of 15, 50, and 150 mg/kg/day. The No Observed Adverse Effect level (NOAEL) for embryo-fetal toxicity in rats was the highest dose of 150 mg/kg/day. […] In pregnant rabbits, racemic ketamine was administered intranasally from gestational day 6 to 18 at doses of 10, 30, and 100 mg/kg/day. The high dose was lowered from 100 to 50 mg/kg after 5 days of dosing due to excessive mortality in the pregnant rabbits.

pregnant rats = experiment: as above; type: in vivo, rat; details: estimating 50% of the exposure to be from esketamine
Experimental: as §2

pregnant rabbits = experiment: Embryo-fetal reproduction study, intranasal ketamine, pregnant rabbits; type: in vivo, rabbit
Experimental: as §2

bone marrow = experiment: In vivo bone marrow micronucleus test; design: species or system mice; details: intraperitoneally-injected
[9] = Single-dose neuronal toxicity study, subcutaneous racemic ketamine (label); type: in vivo, rat; details: rat, in vivo, sc; single subcutaneous dose; read-out: NOAEL for vacuolation
Experimental: (§3) In a single-dose neuronal toxicity study in adult rats, subcutaneously administered racemic ketamine caused neuronal vacuolation in layer I of the retrosplenial cortex of the brain without neuronal necrosis at a dose of 60 mg/kg. The NOAEL for vacuolation in this study was 15 mg/kg. […] The relevance of these findings to humans is unknown.

adult rats = experiment: as above; type: in vivo, rat
Experimental: as §3

Ames test = details: with or without metabolic activation
[10] = test system: adult female Sprague Dawley rats; details: 3 hours after a single intraperitoneal injection (Jevtovic-Todorovic 2000); cited from earlier work
mouse lymphoma = experiment: In vitro mouse lymphoma test; details: in the presence of metabolic activation
[11] = noresketamine in plasma after esketamine 28 mg intranasal (A), n = 13
[12] = noresketamine in plasma after esketamine 56 mg intranasal (B), n = 13
[13] = noresketamine in plasma after esketamine 56 mg intranasal (B), n = 14
[14] = noresketamine in plasma after esketamine 84 mg intranasal (C), n = 12
[15] = noresketamine in plasma after esketamine 84 mg intranasal (C), n = 13
[16] = estimating 50% of the exposure to be from esketamine

Molecule: OCCOCCN1CCN(C2=Nc3ccccc3Sc3ccccc32)CC1 [quetiapine]
- Discontinuation rate due to adverse events (MDD/TRD subjects): 23.7%

Molecule: N[C@]1(c2ccccc2Cl)CCCCC1=O [noresketamine]
- AUC (AUClast and AUC∞) variability ([1]; noresketamine): 17.0% to 21.3
- Between-subject variability for Cmax ([1]; noresketamine): 25.8% to 33.7
- AUClast, mean [1, 11]: 454 ng·h/mL
- AUC∞, mean [1, 11]: 508 ng·h/mL
- Cmax, mean [1, 11]: 92.8 ng/mL
- t1/2, mean [1, 11]: 7.74 h
- tmax, median [1, 11]: 1.25 h
- AUC∞, mean [1, 12]: 924^c h * ng/mL
- t1/2, mean [1, 12]: 7.71^c h
- AUClast, mean [1, 13]: 851 ng·h/mL
- Cmax, mean [1, 13]: 154 ng/mL
- tmax, median [1, 13]: 1.50 h
- AUC∞, mean [1, 14]: 1392^b h * ng/mL
- t1/2, mean [1, 14]: 7.48^b h
- AUClast, mean [1, 15]: 1287 ng·h/mL
- Cmax, mean [1, 15]: 241 ng/mL
- tmax, median [1, 15]: 1.50 h
- Metabolite/Parent Ratio, AUC∞ ([1]; noresketamine/esketamine, esketamine 28 mg intranasal (A), n = 12): 3.80^b
- Activity at the NMDA receptor relative to esketamine (glutamate NMDA receptor): less affinity
- Inhibition of CYP3A4 (CYPs and UGTs): weak reversible inhibition
- Brain-to-plasma ratio, times lower than that of esketamine ([2]; human, in vivo): 4- to 6 times
- Mean terminal t1/2 ([2]; noresketamine in plasma): approximately 8 hours

Molecule: CN[C@]1(c2ccccc2Cl)CCCCC1=O [esketamine HCl, (S)-2-(2-chlorophenyl)-2-(methylamino)cyclohexanone hydrochloride]
- Abnormal respiration, incidence ([3]; 36 mg intranasal): 22/24 ***
- Abnormal respiration: audible respiration, incidence ([3]; 36 mg intranasal): 10/24 ***
- Abnormal respiration: bradypnoea, incidence ([3]; 36 mg intranasal): 22/24 ***
- Ataxia, incidence ([3]; 36 mg intranasal): 24/24 ***
- Catalepsy, incidence ([3]; 36 mg intranasal): 20/24 ***
- Chromodacryorrhea, incidence ([3]; 36 mg intranasal): 0/24
- Decreased general activity, incidence ([3]; 36 mg intranasal): 23/24 ***
- Decubitus, incidence ([3]; 36 mg intranasal): 23/24 ***
- Increased general activity, incidence ([3]; 36 mg intranasal): 24/24 ***
- Narrowed palpebral fissure, incidence ([3]; 36 mg intranasal): 7/24**
- Piloerection, incidence ([3]; 36 mg intranasal): 0/24
- Salivation (out of normal), incidence ([3]; 36 mg intranasal): 23/24 ***
- Duration of severely decreased activity with decubitus, bradypnea, ptosis and catalepsy (anesthesia) ([3]; 36 mg, after the last instillation): 15 to 30 min
- Abnormal respiration, incidence ([3]; 54 mg intranasal): 22/24 ***
- Abnormal respiration: audible respiration, incidence ([3]; 54 mg intranasal): 3/24
- Abnormal respiration: bradypnoea, incidence ([3]; 54 mg intranasal): 21/24 ***
- Ataxia, incidence ([3]; 54 mg intranasal): 24/24 ***
- Catalepsy, incidence ([3]; 54 mg intranasal): 23/24 ***
- Chromodacryorrhea, incidence ([3]; 54 mg intranasal): 0/24
- Decreased general activity, incidence ([3]; 54 mg intranasal): 23/24 ***
- Decubitus, incidence ([3]; 54 mg intranasal): 23/24 ***
- Increased general activity, incidence ([3]; 54 mg intranasal): 24/24 ***
- Narrowed palpebral fissure, incidence ([3]; 54 mg intranasal): 10/24 ***
- Piloerection, incidence ([3]; 54 mg intranasal): 0/24
- Salivation (out of normal), incidence ([3]; 54 mg intranasal): 24/24 ***
- Duration of ataxia after the decrease in activity had subsided ([3]; 54 mg, hydrochloride): 1.5 to 3 h and 1 to 3 h
- Duration of ataxia after the decrease in activity had subsided ([3]; 72 mg): ≥ 3 h
- Abnormal respiration, incidence ([3]; 72 mg intranasal): 30/30 ***
- Abnormal respiration: audible respiration, incidence ([3]; 72 mg intranasal): 2/30
- Abnormal respiration: bradypnoea, incidence ([3]; 72 mg intranasal): 30/30 ***
- Catalepsy, incidence ([3]; 72 mg intranasal): 30/30 ***
- Chromodacryorrhea, incidence ([3]; 72 mg intranasal): 0/30
- Decreased general activity, incidence ([3]; 72 mg intranasal): 30/30 ***
- Decubitus, incidence ([3]; 72 mg intranasal): 30/30 ***
- Increased general activity, incidence ([3]; 72 mg intranasal): 29/30 ***
- Narrowed palpebral fissure, incidence ([3]; 72 mg intranasal): 22/30 ***
- Piloerection, incidence ([3]; 72 mg intranasal): 0/30
- Salivation (out of normal), incidence ([3]; 72 mg intranasal): 29/30 ***
- Abnormal respiration, incidence ([4]; 18 mg/day intranasal): 2/12
- Abnormal respiration: audible respiration, incidence ([4]; 18 mg/day intranasal): 2/12
- Abnormal respiration: bradypnoea, incidence ([4]; 18 mg/day intranasal): 0/12
- Ataxia, incidence ([4]; 18 mg/day intranasal): 12/12***
- Chromodacryorrhea, incidence ([4]; 18 mg/day intranasal): 0/12
- Decreased general activity, incidence ([4]; 18 mg/day intranasal): 5/12
- Decubitus, incidence ([4]; 18 mg/day intranasal): 0/12
- Increased general activity, incidence ([4]; 18 mg/day intranasal): 12/12***
- Salivation (out of normal), incidence ([4]; 18 mg/day intranasal): 12/12***
- Abnormal respiration, incidence ([4]; 36 mg/day intranasal): 11/12***
- Abnormal respiration: audible respiration, incidence ([4]; 36 mg/day intranasal): 6/12**
- Abnormal respiration: bradypnoea, incidence ([4]; 36 mg/day intranasal): 11/12***
- Ataxia, incidence ([4]; 36 mg/day intranasal): 12/12***
- Chromodacryorrhea, incidence ([4]; 36 mg/day intranasal): 0/12
- Decreased general activity, incidence ([4]; 36 mg/day intranasal): 12/12***
- Decubitus, incidence ([4]; 36 mg/day intranasal): 2/12
- Increased general activity, incidence ([4]; 36 mg/day intranasal): 12/12***
- Salivation (out of normal), incidence ([4]; 36 mg/day intranasal): 12/12***
- Abnormal respiration, incidence ([4]; 54 mg/day intranasal): 12/12***
- Abnormal respiration: audible respiration, incidence ([4]; 54 mg/day intranasal): 6/12**
- Abnormal respiration: bradypnoea, incidence ([4]; 54 mg/day intranasal): 12/12***
- Ataxia, incidence ([4]; 54 mg/day intranasal): 12/12***
- Chromodacryorrhea, incidence ([4]; 54 mg/day intranasal): 0/12
- Decreased general activity, incidence ([4]; 54 mg/day intranasal): 12/12***
- Decubitus, incidence ([4]; 54 mg/day intranasal): 8/12***
- Increased general activity, incidence ([4]; 54 mg/day intranasal): 12/12***
- Salivation (out of normal), incidence ([4]; 54 mg/day intranasal): 12/12***
- Maximum solubility, as base ([5]; room temperature, pH 4.5, factor 1.15): 180 mg esketamine base/mL
- Solubility ([5]; water, methanol, ethanol): freely soluble in water and in methanol, and soluble in ethanol
- Histopathological lesions in the brain [6]: absent; also recorded: no neuropathological lesions
- Histopathological lesions in the brain [7]: No histopathological lesions

Molecule: CNC1(c2ccccc2Cl)CCCCC1=O (racemic) [ketamine]
- NOAEL [8]: 150 mg/kg/day
- Esketamine AUC at the NOAEL, multiple of AUC at the MRHD of 84 mg/day (pregnant rats): 12 times
- Esketamine exposure (AUC) at the NOAEL for skeletal malformations, multiple of exposure at MRHD of 84 mg/day (pregnant rabbits): 0.3 times
- Genotoxicity (bone marrow): did not show genotoxic properties
- NOAEL [9]: 15 mg/kg
- NOAEL for neuronal necrosis, multiple of clinical exposure at the MRHD, AUC (adult rats; [16]): 10 times
- NOAEL for neuronal necrosis, multiple of clinical exposure at the MRHD, Cmax (adult rats; [16]): 16 times
- NOAEL for neuronal vacuolation, multiple of clinical exposure at the MRHD, AUC (adult rats; [16]): 1.6 times
- NOAEL for neuronal vacuolation, multiple of clinical exposure at the MRHD, Cmax (adult rats; [16]): 4.5 times
- Dose causing neuronal vacuolation in layer I of the retrosplenial cortex without neuronal necrosis (adult rats; single subcutaneous dose): 60 mg/kg
- Mutagenicity (Ames test): not mutagenic
- ED50-value for the induction of neuronal vacuolation in the PCG/RSC [10]: 47.5 mg/kg body weight
- Mutagenicity (mouse lymphoma): positive

Molecule: (+)MK-801 maleate [reference compound]
- Mortality ([3]; single subcutaneous dose 1 mg/kg, single dose or repeated dose study): No mortality
